Molecules are shown by their SMILES. Calls of active or inactive are those of the source. Some results are limits rather than exact numbers.

Assay [1] deals with Ras and Rab interactor 1/Tyrosine-protein kinase ABL1 (Homo sapiens, UniProt P00519+Q13671). The format is functional.
Assay [2] has as its target T1, Rac GTPase-activating protein 1 (Homo sapiens, UniProt Q9H0H5).
T1 sequence (Q9H0H5 whole entry): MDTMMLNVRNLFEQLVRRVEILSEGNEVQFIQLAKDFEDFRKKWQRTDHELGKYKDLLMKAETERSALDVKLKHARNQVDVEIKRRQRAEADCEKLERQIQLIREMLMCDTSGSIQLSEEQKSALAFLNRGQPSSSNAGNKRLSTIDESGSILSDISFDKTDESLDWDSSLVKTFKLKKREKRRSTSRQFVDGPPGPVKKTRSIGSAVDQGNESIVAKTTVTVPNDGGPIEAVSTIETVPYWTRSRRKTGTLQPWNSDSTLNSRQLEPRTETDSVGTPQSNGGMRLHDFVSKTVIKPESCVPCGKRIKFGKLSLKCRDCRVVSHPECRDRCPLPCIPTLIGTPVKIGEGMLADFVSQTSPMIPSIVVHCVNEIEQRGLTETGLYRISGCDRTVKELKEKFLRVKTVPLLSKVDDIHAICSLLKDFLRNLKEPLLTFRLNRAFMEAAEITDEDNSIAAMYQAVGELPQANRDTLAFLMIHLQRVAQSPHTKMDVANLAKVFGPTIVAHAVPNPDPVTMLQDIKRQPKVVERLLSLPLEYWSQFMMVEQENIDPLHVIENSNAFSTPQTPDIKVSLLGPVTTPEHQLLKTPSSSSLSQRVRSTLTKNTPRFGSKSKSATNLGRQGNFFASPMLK
As to the kind of experiment: MgcRacGAP GTPase-activating activity inhibitors, confirmation, biochemical, ADP Hunter fluorescence, primary and confirmatory (AID 624330). The assay is classed as functional.

For assay [3], the target named is T2, Endoribonuclease toxin MazF (Escherichia coli K-12, UniProt P0AE70).
T2 sequence (P0AE70 whole entry): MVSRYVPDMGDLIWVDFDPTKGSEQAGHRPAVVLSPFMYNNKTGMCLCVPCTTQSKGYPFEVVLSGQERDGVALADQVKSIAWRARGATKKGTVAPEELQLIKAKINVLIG
As to the kind of experiment: MazF toxin RNase activators, dose response, biochemical, fluorescence, single-stranded RNA substrate, uHTS hits (AID 588481). The assay is classed as functional.

In assay [4] the target is Cyclin-dependent kinase 5/CDK5 activator 1 (Homo sapiens, UniProt Q00535). As to the kind of experiment: CDK5/p35 kinase inhibitors, dose response, biochemical, cherry-picked samples, set 2 (AID 504545).
Assay [5] addresses T2, Endoribonuclease toxin MazF. As to the kind of experiment: fluorescent RNA oligo signal without MazF, dose response, counter-screen for MazEF activator project, biochemical, fluorescence, single-stranded RNase substrate (AID 588502). The assay is classed as functional.
Assay [6] has as its target Dual specificity tyrosine-phosphorylation-regulated kinase 1A (Rattus norvegicus, UniProt Q63470). The assay is classed as biochemical, Homo sapiens.
The target of assay [7] is Neuropeptides B/W receptor type 1 (Homo sapiens, UniProt P48145). The experiment in a line: Fluorescence-based dose response cell-based high throughput screening assay to identify antagonists of the G-protein coupled receptor 7 (GPR7). [Related pubchem assays: 1952 (Screening assay (GPR7 antagonists).), 1880 (Summary AID.)]. The assay is classed as functional.
The target in assay [8] is Melanin-concentrating hormone receptor 1 (Homo sapiens, UniProt Q99705). The experiment in a line: Fluorescence-based counterscreen for antagonists of the G-protein coupled receptor 7 (GPR7): cell-based high throughput dose response assay to identify antagonists of the melanin-concentrating hormone receptor 1 (MCHR1). The assay is classed as functional.
Assay [9] in a line: HEp-2 cell cytotoxicity, dose response, cytotoxicity control for RSV inhibitor project, HTS (AID 2410). The assay is classed as functional. To be noted: human respiratory syncytial virus.
The test system of the next assay is Staphylococcus aureus. The experiment in a line: Inhibitors of Bacterial Quorum Sensing Structure Activity Relationship (SAR) Analysis: Dose Response Assay. [Related pubchem assays: 700, 527 ]. The format is functional, organism-based.
Assay [10] concerns the target Signal transducer and activator of transcription 3 (Homo sapiens, UniProt P40763). As to the kind of experiment: STAT3 activators, late-stage profile, late-stage follow-up, cell-based, STAT1 reporter, BCL3 qPCR, cytotoxicity, panel member STAT3 Activation (AID 2049).
Assay [11] concerns the target Transitional endoplasmic reticulum ATPase (Homo sapiens, UniProt P55072). The experiment in a line: p97 ATPase inhibitors, dose response, biochemical (AID 1534).
Assay [12] is described as follows: HeLa cell cytotoxicity, dose response, cytotoxicity control for MgcRacGAP inhibitor project (AID 624300). The assay is classed as functional.
Assay [13] deals with FAD-linked sulfhydryl oxidase ALR (Homo sapiens, UniProt P55789). The experiment in a line: inhibitors of human ALR sulfhydryl oxidase, dose response, biochemical, H2O2 detection, luminescence, cherry-pick (AID 493248).
For assay [14], the target named is Transitional endoplasmic reticulum ATPase (Homo sapiens, UniProt P55072, C522A). The experiment in a line: C522A mutant p97 ATPase inhibitors, dose response, counter-screen for p97 inhibitor project, biochemical, luminescence (AID 1544).
Assay [15] addresses T3, RNA-binding protein pos-1 (Caenorhabditis elegans, UniProt G5EF15).
T3 sequence (G5EF15 whole entry): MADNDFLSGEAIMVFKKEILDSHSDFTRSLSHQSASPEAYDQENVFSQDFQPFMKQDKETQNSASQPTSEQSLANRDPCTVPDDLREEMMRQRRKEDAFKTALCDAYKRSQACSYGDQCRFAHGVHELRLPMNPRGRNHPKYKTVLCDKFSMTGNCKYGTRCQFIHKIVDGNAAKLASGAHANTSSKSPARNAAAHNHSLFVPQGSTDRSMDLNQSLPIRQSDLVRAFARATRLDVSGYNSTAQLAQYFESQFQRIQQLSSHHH
The experiment in a line: inhibitors of POS-1/mex-3 RNA binding, dose response, biochemical, fluorescence polarization (AID 1964).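 Note: purified POS-1 fused to maltose binding protein made in E. coli; potency of compounds blocking POS-1 binding to fluorescent RNA.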

The target in assay [16] is T4, Short transient receptor potential channel 4 (Mus musculus, UniProt Q9QUQ5).
T4 sequence (Q9QUQ5 whole entry): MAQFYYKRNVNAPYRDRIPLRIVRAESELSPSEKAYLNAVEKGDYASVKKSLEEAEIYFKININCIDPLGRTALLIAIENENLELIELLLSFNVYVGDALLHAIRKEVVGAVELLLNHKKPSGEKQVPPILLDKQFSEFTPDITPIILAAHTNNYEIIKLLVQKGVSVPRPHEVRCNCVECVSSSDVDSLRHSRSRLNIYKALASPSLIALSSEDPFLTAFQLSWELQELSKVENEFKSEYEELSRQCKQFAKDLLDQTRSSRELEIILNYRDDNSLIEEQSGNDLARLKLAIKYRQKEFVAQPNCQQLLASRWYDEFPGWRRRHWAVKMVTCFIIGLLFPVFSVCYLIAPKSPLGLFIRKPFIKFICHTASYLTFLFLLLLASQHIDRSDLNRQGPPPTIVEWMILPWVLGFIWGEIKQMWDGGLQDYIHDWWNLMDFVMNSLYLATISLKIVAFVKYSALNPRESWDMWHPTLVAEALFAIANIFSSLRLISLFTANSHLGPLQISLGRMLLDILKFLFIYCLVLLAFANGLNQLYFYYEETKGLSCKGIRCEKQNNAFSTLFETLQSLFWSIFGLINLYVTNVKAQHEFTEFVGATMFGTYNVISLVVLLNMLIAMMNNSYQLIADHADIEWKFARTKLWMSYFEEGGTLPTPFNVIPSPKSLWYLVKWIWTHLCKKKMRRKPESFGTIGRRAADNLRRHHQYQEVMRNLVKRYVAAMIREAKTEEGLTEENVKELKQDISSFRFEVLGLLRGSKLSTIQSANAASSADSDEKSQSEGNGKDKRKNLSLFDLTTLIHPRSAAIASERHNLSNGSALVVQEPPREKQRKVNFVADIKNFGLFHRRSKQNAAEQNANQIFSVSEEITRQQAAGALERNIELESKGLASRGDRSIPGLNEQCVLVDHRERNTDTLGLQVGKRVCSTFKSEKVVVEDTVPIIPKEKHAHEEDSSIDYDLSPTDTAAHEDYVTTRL
The experiment in a line: mouse TRPC4 channel inhibitors, dose response, cell-based, HEK293 TRPC4/mu-opioid, Fluo-4 calcium (AID 434942).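 Note: potency of inhibitors blocking the TRPC4 calcium response.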 The assay is classed as functional.

The target in assay [17] is T5, Zinc finger protein mex-5 (Caenorhabditis elegans, UniProt Q9XUB2).
T5 sequence (Q9XUB2 whole entry): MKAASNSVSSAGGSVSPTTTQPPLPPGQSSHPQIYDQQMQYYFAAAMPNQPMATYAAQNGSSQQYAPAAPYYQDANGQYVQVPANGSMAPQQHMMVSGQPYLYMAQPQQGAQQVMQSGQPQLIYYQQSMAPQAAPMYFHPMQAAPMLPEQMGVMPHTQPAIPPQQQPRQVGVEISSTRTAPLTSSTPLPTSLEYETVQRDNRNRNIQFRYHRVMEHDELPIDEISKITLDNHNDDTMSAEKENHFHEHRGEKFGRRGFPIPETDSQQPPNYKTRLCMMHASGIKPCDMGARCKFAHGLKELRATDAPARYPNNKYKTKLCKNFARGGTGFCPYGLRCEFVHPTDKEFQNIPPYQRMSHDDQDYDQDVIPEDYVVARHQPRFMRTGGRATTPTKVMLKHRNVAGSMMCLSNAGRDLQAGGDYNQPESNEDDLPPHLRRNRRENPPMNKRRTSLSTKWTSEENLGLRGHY
As to the kind of experiment: MEX-5/TCR-2 RNA interaction inhibitors, dose response, biochemical, C. elegans, fluorescence polarization (AID 1960).

Assay [18] addresses T6, SUMO-activating enzyme (Homo sapiens, UniProt Q9UBT2). As to the kind of experiment: SUMOylation inhibitor hit validation, confirmation, SUMOylation inhibitor project, biochemical, AlphaScreen (AID 2018). The assay is classed as functional.
A further assay addresses Large T antigen (Simian virus 40, UniProt P03070). The format is functional, Betapolyomavirus macacae.
In the next assay the target is Cytochrome P450 2D6 (Homo sapiens, UniProt P10635).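 Note: CYP2D6 member of a cytochrome P450 panel assay.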
Another assay addresses Cytochrome P450 2C19 (Homo sapiens, UniProt P33261). As to the kind of experiment: Cytochrome panel assay with activity outcomes. Panel member name: p450-cyp2c19 Compounds with AC50 equal or less than 10 uM are considered active. The format is functional. To be noted: read-out: AC50.
Another assay has as its target T7, Cytochrome P450 1A2 (Homo sapiens, UniProt P05177).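 Note: PubChem cytochrome P450 panel assay, CYP1A2 panel member.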
T7 sequence (P05177 whole entry): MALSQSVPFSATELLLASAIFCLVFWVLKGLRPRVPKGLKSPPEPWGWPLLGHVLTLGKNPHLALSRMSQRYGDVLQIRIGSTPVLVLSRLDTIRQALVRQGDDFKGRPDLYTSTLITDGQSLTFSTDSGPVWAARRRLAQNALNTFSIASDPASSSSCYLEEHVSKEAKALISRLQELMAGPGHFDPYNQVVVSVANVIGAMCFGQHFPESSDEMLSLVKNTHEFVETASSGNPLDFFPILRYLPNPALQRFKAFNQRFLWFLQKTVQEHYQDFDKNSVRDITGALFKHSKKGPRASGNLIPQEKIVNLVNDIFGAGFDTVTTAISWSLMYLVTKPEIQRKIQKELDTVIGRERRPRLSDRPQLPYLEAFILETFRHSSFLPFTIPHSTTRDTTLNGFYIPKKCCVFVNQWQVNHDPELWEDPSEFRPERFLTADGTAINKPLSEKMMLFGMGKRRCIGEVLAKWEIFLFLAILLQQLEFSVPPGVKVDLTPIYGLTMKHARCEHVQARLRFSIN

Assay [19] addresses T6, SUMO-activating enzyme. The experiment in a line: inhibitors of in vitro SUMOylation cascade, primary screen, biochemical, HTRF, uHTS (AID 2006). The format is protein-complex assay.

T6 sequence (Q9UBE0 whole entry): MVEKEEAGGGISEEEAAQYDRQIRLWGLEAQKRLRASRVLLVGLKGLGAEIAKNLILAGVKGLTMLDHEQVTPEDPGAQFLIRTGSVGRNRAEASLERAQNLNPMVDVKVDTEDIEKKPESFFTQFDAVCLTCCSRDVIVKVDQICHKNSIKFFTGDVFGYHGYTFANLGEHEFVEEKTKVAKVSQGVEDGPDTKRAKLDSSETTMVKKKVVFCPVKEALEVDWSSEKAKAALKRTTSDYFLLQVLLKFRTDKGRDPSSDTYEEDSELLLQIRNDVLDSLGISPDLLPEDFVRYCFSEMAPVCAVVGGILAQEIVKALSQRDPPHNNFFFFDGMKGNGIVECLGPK
T6 sequence (Q9UBT2 whole entry): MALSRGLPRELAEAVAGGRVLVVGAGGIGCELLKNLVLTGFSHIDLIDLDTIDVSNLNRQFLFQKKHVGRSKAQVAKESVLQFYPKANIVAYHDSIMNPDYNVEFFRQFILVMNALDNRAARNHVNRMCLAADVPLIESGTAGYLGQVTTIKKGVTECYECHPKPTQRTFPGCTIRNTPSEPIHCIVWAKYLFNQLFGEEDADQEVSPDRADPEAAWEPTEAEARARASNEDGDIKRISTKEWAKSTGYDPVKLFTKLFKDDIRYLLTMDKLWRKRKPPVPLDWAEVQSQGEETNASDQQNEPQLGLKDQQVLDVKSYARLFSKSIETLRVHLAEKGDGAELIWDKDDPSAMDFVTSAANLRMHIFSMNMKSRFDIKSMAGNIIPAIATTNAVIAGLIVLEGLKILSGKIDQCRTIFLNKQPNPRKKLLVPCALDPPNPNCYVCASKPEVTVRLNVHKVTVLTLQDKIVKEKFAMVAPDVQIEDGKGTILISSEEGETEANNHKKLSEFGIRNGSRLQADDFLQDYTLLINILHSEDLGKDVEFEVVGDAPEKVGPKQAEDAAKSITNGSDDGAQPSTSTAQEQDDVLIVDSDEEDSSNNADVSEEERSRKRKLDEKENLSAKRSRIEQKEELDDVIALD
Sequence of Cytochrome P450 2D6 (P10635 whole entry): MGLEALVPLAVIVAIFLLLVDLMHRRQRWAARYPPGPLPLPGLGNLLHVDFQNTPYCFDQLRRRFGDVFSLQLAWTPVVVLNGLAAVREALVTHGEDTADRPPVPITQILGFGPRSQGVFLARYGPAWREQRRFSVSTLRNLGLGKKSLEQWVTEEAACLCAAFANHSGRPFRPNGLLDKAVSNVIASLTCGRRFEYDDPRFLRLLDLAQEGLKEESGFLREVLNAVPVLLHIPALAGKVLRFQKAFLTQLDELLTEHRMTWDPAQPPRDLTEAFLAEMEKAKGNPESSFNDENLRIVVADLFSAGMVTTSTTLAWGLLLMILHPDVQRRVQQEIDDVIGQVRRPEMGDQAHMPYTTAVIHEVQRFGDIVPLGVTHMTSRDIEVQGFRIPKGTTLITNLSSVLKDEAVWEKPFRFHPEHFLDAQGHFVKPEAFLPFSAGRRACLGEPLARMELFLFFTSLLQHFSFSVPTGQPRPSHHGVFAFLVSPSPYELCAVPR
Sequence of Ras and Rab interactor 1/Tyrosine-protein kinase ABL1 (P00519 whole entry): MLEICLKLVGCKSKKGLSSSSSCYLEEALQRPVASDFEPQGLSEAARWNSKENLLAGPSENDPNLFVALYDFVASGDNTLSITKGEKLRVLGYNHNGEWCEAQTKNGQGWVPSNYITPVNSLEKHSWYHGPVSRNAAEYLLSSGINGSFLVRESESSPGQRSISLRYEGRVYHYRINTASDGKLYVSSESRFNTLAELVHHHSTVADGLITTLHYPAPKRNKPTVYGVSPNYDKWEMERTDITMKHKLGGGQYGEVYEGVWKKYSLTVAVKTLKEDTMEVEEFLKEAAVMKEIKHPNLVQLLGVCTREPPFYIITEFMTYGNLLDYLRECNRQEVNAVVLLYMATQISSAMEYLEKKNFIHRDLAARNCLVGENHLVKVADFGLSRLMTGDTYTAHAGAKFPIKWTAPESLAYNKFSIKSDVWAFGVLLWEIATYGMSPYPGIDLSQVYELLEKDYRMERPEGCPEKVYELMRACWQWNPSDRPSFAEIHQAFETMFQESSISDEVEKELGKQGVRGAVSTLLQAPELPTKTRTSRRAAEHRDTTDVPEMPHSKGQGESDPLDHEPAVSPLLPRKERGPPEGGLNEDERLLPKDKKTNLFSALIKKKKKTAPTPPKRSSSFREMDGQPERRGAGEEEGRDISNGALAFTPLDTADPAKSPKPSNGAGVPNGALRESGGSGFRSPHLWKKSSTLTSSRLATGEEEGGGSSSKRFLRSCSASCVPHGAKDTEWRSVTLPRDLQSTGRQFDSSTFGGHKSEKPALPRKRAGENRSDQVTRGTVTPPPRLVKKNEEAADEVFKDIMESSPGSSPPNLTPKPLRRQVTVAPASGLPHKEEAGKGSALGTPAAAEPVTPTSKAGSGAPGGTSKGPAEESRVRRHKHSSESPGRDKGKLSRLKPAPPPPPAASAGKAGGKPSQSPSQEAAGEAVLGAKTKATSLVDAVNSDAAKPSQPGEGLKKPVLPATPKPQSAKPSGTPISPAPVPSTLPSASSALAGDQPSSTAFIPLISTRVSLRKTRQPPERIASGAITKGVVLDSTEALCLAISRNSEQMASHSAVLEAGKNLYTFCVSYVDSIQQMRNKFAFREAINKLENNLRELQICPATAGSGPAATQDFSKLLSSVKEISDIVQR
Sequence of Ras and Rab interactor 1/Tyrosine-protein kinase ABL1 (Q13671 whole entry): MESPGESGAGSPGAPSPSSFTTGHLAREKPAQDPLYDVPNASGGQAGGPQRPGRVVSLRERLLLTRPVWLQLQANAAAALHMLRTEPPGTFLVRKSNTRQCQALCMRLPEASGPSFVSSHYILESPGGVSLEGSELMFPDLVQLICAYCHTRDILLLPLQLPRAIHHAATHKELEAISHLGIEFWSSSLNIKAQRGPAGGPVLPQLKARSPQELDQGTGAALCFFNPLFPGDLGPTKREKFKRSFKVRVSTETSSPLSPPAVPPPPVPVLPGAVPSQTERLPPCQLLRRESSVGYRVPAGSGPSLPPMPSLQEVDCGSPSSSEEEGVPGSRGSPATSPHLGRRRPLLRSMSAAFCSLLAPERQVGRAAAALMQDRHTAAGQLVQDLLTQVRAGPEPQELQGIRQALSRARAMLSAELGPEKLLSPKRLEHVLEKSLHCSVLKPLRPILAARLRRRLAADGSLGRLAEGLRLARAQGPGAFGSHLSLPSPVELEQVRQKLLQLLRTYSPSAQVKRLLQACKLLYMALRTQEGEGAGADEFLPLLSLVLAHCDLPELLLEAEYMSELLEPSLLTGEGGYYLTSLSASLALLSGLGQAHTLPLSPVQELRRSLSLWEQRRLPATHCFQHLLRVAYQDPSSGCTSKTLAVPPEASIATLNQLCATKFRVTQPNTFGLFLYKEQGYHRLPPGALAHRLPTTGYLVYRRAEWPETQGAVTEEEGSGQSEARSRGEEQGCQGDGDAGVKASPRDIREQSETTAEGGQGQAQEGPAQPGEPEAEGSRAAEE
Sequence of Cytochrome P450 2C19 (P33261 whole entry): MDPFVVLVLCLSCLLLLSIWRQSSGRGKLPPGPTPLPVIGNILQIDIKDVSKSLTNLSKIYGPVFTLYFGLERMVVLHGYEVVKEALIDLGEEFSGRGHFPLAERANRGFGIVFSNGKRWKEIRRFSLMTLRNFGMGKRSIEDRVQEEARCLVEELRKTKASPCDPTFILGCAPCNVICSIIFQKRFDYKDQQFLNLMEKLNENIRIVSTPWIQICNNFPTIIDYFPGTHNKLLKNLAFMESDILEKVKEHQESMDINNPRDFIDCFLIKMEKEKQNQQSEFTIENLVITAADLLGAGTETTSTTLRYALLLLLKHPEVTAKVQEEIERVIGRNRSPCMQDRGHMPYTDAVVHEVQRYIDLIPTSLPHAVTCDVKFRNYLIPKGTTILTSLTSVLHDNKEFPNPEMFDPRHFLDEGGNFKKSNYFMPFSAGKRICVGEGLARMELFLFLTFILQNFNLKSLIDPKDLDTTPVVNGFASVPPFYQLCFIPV
Sequence of Neuropeptides B/W receptor type 1 (P48145 whole entry): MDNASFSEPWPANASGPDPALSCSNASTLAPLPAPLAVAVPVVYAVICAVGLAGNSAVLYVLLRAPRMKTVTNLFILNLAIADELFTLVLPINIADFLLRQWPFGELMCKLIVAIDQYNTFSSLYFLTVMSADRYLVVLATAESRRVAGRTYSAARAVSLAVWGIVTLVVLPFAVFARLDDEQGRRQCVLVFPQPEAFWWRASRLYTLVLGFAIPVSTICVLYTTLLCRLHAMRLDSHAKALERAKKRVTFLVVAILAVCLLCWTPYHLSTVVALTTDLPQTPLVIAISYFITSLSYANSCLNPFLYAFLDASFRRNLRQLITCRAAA
Sequence of Large T antigen (P03070 whole entry): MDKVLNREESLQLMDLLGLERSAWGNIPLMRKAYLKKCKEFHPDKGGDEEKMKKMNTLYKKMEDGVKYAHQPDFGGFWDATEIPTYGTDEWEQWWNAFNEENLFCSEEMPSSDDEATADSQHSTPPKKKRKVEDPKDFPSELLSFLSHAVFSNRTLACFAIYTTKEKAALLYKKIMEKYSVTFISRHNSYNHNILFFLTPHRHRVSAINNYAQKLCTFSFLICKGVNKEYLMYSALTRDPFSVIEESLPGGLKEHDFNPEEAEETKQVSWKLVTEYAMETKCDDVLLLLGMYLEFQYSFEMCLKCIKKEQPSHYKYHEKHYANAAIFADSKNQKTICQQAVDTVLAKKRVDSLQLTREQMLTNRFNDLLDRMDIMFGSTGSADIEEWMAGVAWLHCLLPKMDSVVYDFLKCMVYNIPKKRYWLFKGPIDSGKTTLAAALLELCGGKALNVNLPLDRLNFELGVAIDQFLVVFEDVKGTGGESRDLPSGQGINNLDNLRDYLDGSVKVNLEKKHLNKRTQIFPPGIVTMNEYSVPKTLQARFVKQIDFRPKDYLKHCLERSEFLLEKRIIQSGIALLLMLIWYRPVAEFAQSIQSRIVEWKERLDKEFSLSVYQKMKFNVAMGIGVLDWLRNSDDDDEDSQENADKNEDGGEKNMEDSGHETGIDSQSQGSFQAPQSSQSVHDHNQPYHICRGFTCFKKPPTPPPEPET

On to `O=c1c(O)c(-c2ccc(O)c(O)c2)oc2cc(O)ccc12`, for which the IC50 was > 73.5 µM (inactive) in assay [1] and 45.7 µM (active) in assay [2]. The EC50 in assay [3] and in [5] was > 99 µM (inactive) in each case. For the same compound, the AC50 in assay [4] was 1.69 µM (active); in assay [6] it was 0.248 µM (active).

With `Cc1cc(C[n+]2cc(Br)ccc2N)c2ncccc2c1`, the IC50 in assay [7] is listed as > 43.8 µM (not active); in [8], 26.2 µM (not active). Moreover, the CC50 in assay [9] was 46.4 µM (active).

In the case of `COc1ccc(S(=O)(=O)c2nnn3c2[nH]c(=O)c2ccccc23)cc1`, the IC50 in the assay with Staphylococcus aureus is 0.563 µM (active).

In the case of `COc1cc(NC(=O)c2cc(C(C)C)on2)c(OC)cc1Cl`, the EC50 in [10] was 0.00104 µM (active).

For the compound `NS(=O)(=O)c1ccc(Nc2nc(-c3ccc(O)cc3O)cs2)cc1`, the IC50 in assay [11] was 24.2 µM (not active); in assay [2], 44.5 µM (active); in [14] it was > 50 µM (not active). The CC50 in [12] was 100 µM (active). The figures for the AC50 in [13] and in assay [6] were 3.12 µM (active) and 1.94 µM (active), respectively. The EC50 in assay [15] is 17.1 µM (active); in [16], 1.33 µM (active); in assay [17] it was 9.7 µM (active).

In the case of `N=C1/C(=C\c2ccc(SCc3ccco3)o2)C(=O)N=C2SC=NN12`, the values for the IC50 on SUMO-activating enzyme [18], on Large T antigen and at SUMO-activating enzyme [19] were 2.28 µM (active), 59.6 µM (active) and 32.7 µM (active), respectively. Also, the AC50 at Cytochrome P450 2D6 was 15.8 µM (inconclusive); on Cytochrome P450 2C19 it was 15.8 µM (inconclusive); on Cytochrome P450 1A2, 1.58 µM (inconclusive). For the same compound, the EC50 in assay [15] and in assay [17] was > 300 µM (not active) throughout.
